Experimental data reported in article PMC6257627, “Target Validation and Identification of Novel Boronate Inhibitors of the Plasmodium falciparum Proteasome” (Journal of Medicinal Chemistry, 2018).
Read-outs that look alike come from different tables or passages of the source.

How the values were obtained:
[1] = test system: bortezomib-resistant 3D7 B1 line (clone B1a); test: 72 h viability assay, bortezomib-resistant B1 line / clone B1a; assay type: cell-based, Plasmodium falciparum; settings: for bortezomib-resistant 3D7 B1 line LD50 (72 h): ring stage; for Bortezomib-resistant3D7 B1 LD50 (72-h): supplement CSV
Method: (§1) For standard assays of antiplasmodial activity, sorbitol-treated ring stage parasites were incubated with the drugs for 72 h and viability was assessed in the second cycle.[12] Drug pulse assays were performed as described previously.[47] For short pulse assays, tightly synchronized early ring stage parasites (1–3 h after invasion) at 0.2% hematocrit and 1–2% parasitemia were subjected to 3 h drug pulse at 37 °C and returned to culture until parasites reached trophozoite stage of the following cycle. Cells were then stained with 2 μM Syto-61 (Thermo Fisher Scientific), and their fluorescence was measured by flow cytometry (FACSCanto II cytometer; Becton Dickinson). Data were gated and analyzed using FCS Express software (version 3) to determine parasitemia of each sample. Viability represents the parasitemia normalized to untreated and “kill treated” controls, where “kill treated” refers to samples treated with 2 μM DHA for 48–72 h. Interactions between DHA and MPI-1 or MPI-4 against the K13 mutant (DHA resistant) Cam3.II P. falciparum strain, exposed to a 3 h pulsed treatment, were determined at 4 h after invasion as described previously.[12]
Prior to selection, an aliquot of the parental line was stocked as a reference for subsequent whole genome sequencing analysis. Several independent clones of P. falciparum 3D7 parasite line were cultured in Petri dishes exposed to increasing drug pressure for ∼30 weeks. Parasites were cloned by limiting dilution. For parasite extraction and genomic DNA isolation, cultures were scaled up to at least 4–5% parasitaemia, lysed in saponin, and genomic DNA was isolated using ISOLATE II Genomic DNA kit (Bioline). DNA libraries for each gDNA sample were prepared for sequencing using the Nextera XT kit as described previously.[50] Libraries were clustered and run on an Illumina HiSeq 2500 using the RapidRun mode, sequencing 100 base pairs in depth on either end. Paired-end reads were either aligned to the P. falciparum 3D7 reference genome (PlasmoDB version 13.0).

[2] = test system: P. falciparum Cam3.II^Rev; test: 3 h pulsed exposure viability assay, K13 wild-type revertant early rings; assay type: cell-based, Plasmodium falciparum; settings: for Cam3.II^Rev LD50 (3 h): early ring (1–3 h p.i.), 3 h pulse, viability in next cycle, mean ± SEM, n=3; for Cam3.IIRev LD50 (3-h): supplement CSV
Method: as §1

[3] = test system: Pf20S proteasome subunits of bortezomib-resistant parasites; test: BMV037 active site probe competition, bortezomib-resistant parasites; assay type: biochemical, P. falciparum; settings: compounds 1 h
Method: Figure 3 Active site probe analysis of the proteasome subunit specificity of the selected compounds in 3D7 parent and bortezomib-resistant parasites. Purified Pf20S proteasome from wild-type 3D7 (A) and bortezomib-resistant (C) parasites or wild-type 3D7 (B) and bortezomib-resistant (D) trophozoite-infected erythrocytes were treated with compounds for 1 h, and activity-based probe (BMV037) labeling was performed (postlysis for the trophozoite samples). Fluorescent gel scans reveal subunits that remain active after treatment.
P. falciparum culture, purified Pf20S proteasomes, human constitutive proteasomes, or immunoproteasomes (Boston Biochem) were incubated with test compounds at 37 °C for 1 h. Treated parasite lysates (10 μg), Pf20S proteasomes (80 nM), human constitutive proteasomes (20 nM), or immuno-20S proteasomes (20 nM) were labeled with BMV037 (10 μM) at 37 °C for 2 h. Samples were mixed with SDS loading buffer and heated at 95 °C for 5 min. Samples for P. falciparum and human immuno-20S were run on 4–12% Bis-Tris acrylamide gels using MES SDS running buffer (Thermo Fisher Scientific). Human constitutive 20S samples were run on a 10% Bis-Tris acrylamide gel using MOPS SDS running buffer (Thermo Fisher Scientific). Gels were imaged at the Cy5 channel on a Gel Doc XR+ Documentation System (Bio-Rad) or an Amersham Typhoon Trio imager (GE Healthcare Life Sciences).

HepG2 cells = test: HepG2 cellular toxicity (CellTiter-Glo, 72 h); assay type: cell-based, human; settings: for HepG2 LD50 (72 h): 72 h incubation, mean ± SEM or half range, 2–4 experiments; for HepG2 LD50( 72-h): supplement CSV
[4] = test system: P. falciparum Cam3.II^R539T; test: 3 h pulsed exposure viability assay, K13 mutant early rings; assay type: cell-based, Plasmodium falciparum; settings: for Cam3.II^R539T LD50 (3 h): early ring (1–3 h p.i.), 3 h pulse, viability in next cycle, mean ± SEM, n=3; for Cam3.IIR539T LD50 (3-h): supplement CSV
Method: as §1

HCT116 cells = test: HCT116 cellular toxicity (CellTiter-Glo, 72 h); assay type: cell-based, human; settings: for HCT116 LD50 (72 h): 72 h incubation, mean ± SEM or half range, 2–4 experiments; for HCT116 LD50 (72-h): supplement CSV
Method: HCT-116 and HepG2 cells were obtained from the American Type Culture Collection and maintained as recommended by the supplier. Cells were cultured in the ATCC-formulated McCoy’s 5A medium or DMEM (Life Technologies, CA), supplemented with fetal bovine serum to a final concentration of 9–10%, and incubated at 37 °C in an atmosphere of 95% air and 5% CO2. Cellular toxicity assays were performed using Promega’s CellTiter-Glo assay system. Varying concentrations of the test compounds in 5% DMSO/95% PBS were dispensed into a 384-well plate and cells added to each well. The plates were incubated at 37 °C for 72 h, and the CellTiter-Glo assay to assess cell viability was performed as described by the manufacturer (Promega).
For human cell line activity assays, cellular toxicity assays were performed as described previously.[23],[48]

[5] = test system: Pf20S proteasome β1, β2, β5 subunits; assay type: biochemical, P. falciparum
[6] = test system: human constitutive proteasome and immunoproteasome catalytic subunits; test: BMV037 active site probe competition, purified human 20S proteasomes; assay type: biochemical; settings: for subunit specificity by BMV037 probe labeling, human constitutive proteasome and immunoproteasome: compounds 1 h, probe 2 h
[7] = test system: P. falciparum 3D7 parasites; test: Standard 72 h antiplasmodial viability assay, 3D7; assay type: cell-based, Plasmodium falciparum; settings: for Pf3D7 LD50 (72 h): sorbitol-treated ring stage, viability in next cycle (~72 h); for Pf3D7 LD50 (72-h): supplement CSV
Method: P. falciparum parasites used in this study were propagated in O+ human erythrocytes (Australian Red Cross Blood Service) in RPMI-1640, supplemented with GlutaMAX, 25 mM HEPES (Thermo Fisher Scientific), 5% (v/v) human serum (Australian Red Cross Blood Service), 0.25% (w/v) AlbuMAX II (Thermo Fisher Scientific), 10 μM D-glucose, 22 μg/mL gentamycin (Sigma-Aldrich), and 0.5 mM hypoxanthine (Sigma-Aldrich) and incubated at 37 °C in an atmosphere of 1% O2, 5% CO2, and 94% N2. Cultures were monitored by Giemsa staining of methanol-fixed blood smears. Culture medium was replaced at least every 48 h, and parasitemia was maintained below 10% to ensure health of cultures. The GFP-DD reporter strain was kindly provided by Dr. Paul Gilson, Dr. Brendan Crabb, and Dr. Mauro F. Azevedo (Burnet Institute).
as §1

[8] = compounds 1 h, purified Pf20S or infected erythrocytes

SMILES | bortezomib-resistant 3D7 B1 line LD50 (72 h) ([1]; mean ± SEM, n=3) [µM] | Bortezomib-resistant3D7 B1 LD50 (72-h) [1] [µM] | Cam3.II^Rev LD50 (3 h) [2] [µM] | Cam3.IIRev LD50 (3-h) [2] [µM] | BMV037 labeling of the β5 active site in bortezomib-resistant parasites [3] | HepG2 LD50 (72 h) (HepG2 cells) [µM] | HepG2 LD50( 72-h) (HepG2 cells) [µM] | Cam3.II^R539T LD50 (3 h) [4] [µM] | Cam3.IIR539T LD50 (3-h) [4] [µM] | HCT116 LD50 (72 h) (HCT116 cells) [µM] | HCT116 LD50 (72-h) (HCT116 cells) [µM] | subunit specificity by BMV037 probe labeling, wild-type 3D7 [5, 8] | subunit specificity by BMV037 probe labeling, human constitutive proteasome and immunoproteasome [6] | Pf3D7 LD50 (72 h) ([7]; mean ± SEM, n=3) [µM] | Pf3D7 LD50 (72-h) [7] [µM] | also measured
CC(=O)N1CCC[C@@H]1C(=O)N[C@@H](C)C(=O)N[C@@H](Cc1ccccc1)B(O)O [MPI-1] | 0.23 ± 0.04 | 0.23 ± 0.04 | 0.9 ± 0.1 | 0.9 ± 0.1 | still able to prevent BMV037 labeling of the β5 active site | 6.7 ± 3.2 | 6.7 ± 3.2 | 0.82 ± 0.06 | 0.82 ± 0.06 | 0.79 ± 0.01 | 0.79 ± 0.01 | preferentially inhibited binding of the probe to the β5 subunit | preferentially targeted the β5 subunits | 0.12 ± 0.01 | 0.12 ± 0.01 | binding of the BMV037 probe to β5c after treatment ([6]; 10 μM): did not completely ablate binding of the probe to β5c
CC(C)C[C@H](NC(=O)[C@H](Cc1ccccc1)NC(=O)c1cnccn1)B(O)O [bortezomib, reference compound] | – | 1.3 ± 0.1 | 0.18 ± 0.06 | 0.18 ± 0.06 | – | 0.03 ± 0.02 | 0.03 ± 0.02 | 0.12 ± 0.02 | 0.12 ± 0.02 | 0.006 ± 0.001 | 0.006 ± 0.001 | – | preferentially inhibits the β1 and β5 subunits | 0.06 ± 0.01 | 0.06 ± 0.01 | LD50 (72 h), 3D7 B1a ([1]; bortezomib, resistant clone B1a, mean ± SEM, n=3): 1.3 ± 0.1 µM; BMV037 competition profile in bortezomib-resistant parasites [3]: unable to prevent binding of the probe; subunit specificity by BMV037 probe labeling, wild-type 3D7 [5]: preferential inhibition of the β5 activity; IC50 ([7]; Plasmodium falciparum, 3D7, dose–response profiles, n = 3, read-out: 50% viability inhibitory concentration against 3D7 parasites): ~60 nM; LD50 (72 h), 3D7 parent ([7]; bortezomib, wild-type parent clone, mean ± SEM, n=3): 0.06 ± 0.01 µM
CC(C)C[C@H](NC(=O)[C@H](Cc1ccccc1)NC(=O)Cc1ccc(O)cc1)B(O)O [MPI-4] | 0.077 ± 0.001 | 0.077 ± 0.001 | 0.18 ± 0.02 | 0.18 ± 0.02 | did not prevent labeling of the β5 active site | 0.04 ± 0.01 | 0.04 ± 0.01 | 0.16 ± 0.01 | 0.16 ± 0.01 | 0.025 ± 0.014 | 0.025 ± 0.014 | inhibited both β2 and β5 activities | preferential inhibition of the β1 and β5 subunits | 0.061 ± 0.007 | 0.061 ± 0.007 | cross-resistance of the bortezomib-resistant parasite line (B1) ([1]; growth inhibition, versus 3D7): retained sensitivity; BMV037 labeling of the β2 active site in bortezomib-resistant parasites [3]: completely inhibit BMV037 labeling of the β2 active site
